# Measured values: patent publication US20220370385A1, “COMPOSITIONS FOR USE IN INHIBITING SRC KINASE AND TREATING AND PREVENTING ASSOCIATED DISORDERS” (Enzene Biosciences Ltd., priority 2019, published 2022)
# pEC50: −log10 of the molar value. Entries after “also recorded” stand apart in the source; their conditions may differ.
# Legend:
# [1] = tested on: breast cancer cell line BT-474; test: Anti-proliferative activity in BT-474; assay type: cell-based
# SRC kinase = target: T1, SRC kinase (Homo sapiens, UniProt P12931); test: Kinase inhibitor screening assay (Promega kinase selectivity profiling, ADP-Glo); assay type: biochemical; parameters: dose or concentration left out as unconfirmed; settings: panel of 16 tyrosine kinases
# T1 construct: purchased Promega
# T1 sequence (P12931 whole entry): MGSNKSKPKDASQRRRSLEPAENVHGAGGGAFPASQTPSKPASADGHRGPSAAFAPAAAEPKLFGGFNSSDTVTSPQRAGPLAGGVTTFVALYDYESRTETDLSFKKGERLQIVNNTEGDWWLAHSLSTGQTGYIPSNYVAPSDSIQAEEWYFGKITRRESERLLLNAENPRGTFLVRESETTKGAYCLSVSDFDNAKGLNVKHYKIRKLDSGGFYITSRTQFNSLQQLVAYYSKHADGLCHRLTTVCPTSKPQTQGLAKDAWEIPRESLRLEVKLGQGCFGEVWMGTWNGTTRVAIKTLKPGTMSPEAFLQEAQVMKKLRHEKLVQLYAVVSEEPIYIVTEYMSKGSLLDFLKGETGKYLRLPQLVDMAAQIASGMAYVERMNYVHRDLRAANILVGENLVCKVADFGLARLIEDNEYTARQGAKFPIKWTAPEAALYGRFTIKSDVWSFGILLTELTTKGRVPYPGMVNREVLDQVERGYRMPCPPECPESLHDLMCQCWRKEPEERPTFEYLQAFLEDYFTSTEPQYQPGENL
# Description: The kinase selectivity profiling systems from Promega was used to check the inhibitory activity of the purified compound against the broad panel of Tyrosine kinases. The kinase selectivity assays were assembled in a 384-well plate using 1 μl of the purified compound ([…]), 2 μl of each kinase working stock and 2 μl of the corresponding ATP/Substrate working stock as per the manufacturer protocol and kinase activity was quantified using the ADP-Glo™ kinase assay from Promega. The reaction assembled with kinase and corresponding ATP/Substrate without the purified compound was used as a positive control.
# MDA-MB-468 cells = test: MDA-MB-468 cell viability, CellTiter-Glo, 24 hrs; assay type: cell-based, human; settings: Homo sapiens, 24 hrs incubation
# Description: MDA-MB-468 cells, isolated from a pleural effusion of a patient with metastatic adenocarcinoma of the breast, is a triple negative breast cancer (TNBC) cell line. The IC 50 value of E05 or lapatinib (Sigma) or the structural analogues of E05 were tested in this cell line.
# Briefly, MDA-MB-468 cells (ATCC #HTB-32) were seeded with a density of 5,000 cells per well in a 96 well white plate (Costar Cat #3917) in DMEM media supplemented with 10% FBS (assay medium). The plates were incubated at 37° C., 5% CO2 for 24 hr. E05 and analogues were diluted in the assay medium and added to the respective wells of the assay plate. The plates were further incubated at 37° C., 5% CO2 for 24 hrs. After the incubation, the cell viability was assessed using CellTiter-Glo® and the plates were read for luminescence using Cytation 5 (Biotek). The relative luminescence unit (RLU) obtained was plotted against the concentration and EC50 values were estimated using Graphpad Prism 5 software (FIG. 15 and Table 2).
# [2] = Repeated dose 7-day dose range finding study, oral gavage; assay type: in vivo
# Description: Repeated dose 7-day dose range finding study (DRF) of E05 through oral gavage was carried out in Wistar rats.
# [3] = Female G2 250 mg/kg b. wt., oral gavage 7 days
# [4] = Female G3 500 mg/kg b. wt., oral gavage 7 days
# [5] = Female G4 1000 mg/kg b. wt., oral gavage 7 days
# [6] = Male G2 250 mg/kg b. wt., oral gavage 7 days
# [7] = Male G3 500 mg/kg b. wt., oral gavage 7 days
# [8] = Male G4 1000 mg/kg b. wt., oral gavage 7 days
smiles,measurement,setting,value
"O=C(O)CCc1ccc(O)c(O)c1 [E05, 3-(3,4-Dihydroxyphenyl) propanoic acid]",inhibition of growth,[1],dose dependent response; also recorded: dose dependent inhibition of growth
same,SRC kinase activity,SRC kinase,inhibited
same,pEC50,MDA-MB-468 cells,4.06
same,Morbidity %,[2]; [3],0%
same,Morbidity No,[2]; [3],0
same,Mortality %,[2]; [3],0%
same,Mortality No,[2]; [3],0
same,Morbidity %,[2]; [4],0%
same,Morbidity No,[2]; [4],0
same,Mortality %,[2]; [4],0%
same,Mortality No,[2]; [4],0
same,Morbidity %,[2]; [5],0%
same,Morbidity No,[2]; [5],0
same,Mortality %,[2]; [5],0%
same,Mortality No,[2]; [5],0
same,Morbidity %,[2]; [6],0%
same,Morbidity No,[2]; [6],0
same,Mortality %,[2]; [6],0%
same,Mortality No,[2]; [6],0
same,Morbidity %,[2]; [7],0%
same,Morbidity No,[2]; [7],0
same,Mortality %,[2]; [7],0%
same,Mortality No,[2]; [7],0
same,Morbidity %,[2]; [8],0%
same,Morbidity No,[2]; [8],0
same,Mortality %,[2]; [8],0%
same,Mortality No,[2]; [8],0
same,"food consumption, organ weight and relative organ weight","[2]; male and female rats, oral gavage 7 days",No treatment-related changes
same,"mortality, morbidity or clinical sign","[2]; rat, in vivo, po","no mortality, morbidity or clinical sign"
same,toxicity,"[2]; up to 1000 mg/kg b. wt., orally through gavage, 7 consecutive days",did not produce any toxicity
